# Source: US20240308985A1 (Psy Therapeutics, Inc., priority 2021, published 2024)
# Molecular target: Monoacylglycerol Lipase (MAGL) (Homo sapiens (Human), UniProt Q99685)
# Assay: MAGL inhibition potency (IC50) assay with 4NPA substrate
# Assay type: biochemical
# Settings: Method 6: Reaction Biology MAGL enzyme, 6 nM; read-out: MAGL Potency (Detection Method)
# Text: The potency of certain compounds for inhibiting MAGL were obtained using the following assays. The monoacylglycerol lipase inhibitor screening assay kit from Cayman Chemical was used to measure the MAGL potency for the compounds in Table 6 and Table 7. Cayman's Monoacylglycerol Lipase Inhibitor Screening Assay provides a method for screening human MAGL inhibitors. MAGL hydrolyzes 4-nitrophenylacetate resulting in a yellow product, 4-nitrophenol, with an absorbance of 405-412 nm. MAGL Inhibition was measured by the following assay. Monoacylglycerol Lipase (MAGL) inhibition was measured using recombinant MAGL enzyme (aa 2-303 RBC, internal preparation) and the substrate 4-Nitrophenyl acetate (4NPA) (Sigma-Aldrich, N8130). Hydrolysis of the substrate in the presence of the enzyme was measured by absorbance at 405 nm. 10 μL of assay buffer (10 mM Tris pH 7.5, 1 mM EDTA, 0.9% DMSO) was added to a black 384-well non-binding plate with clear bottom (Greiner, 781906) for each reaction. […] DMSO control wells were included for reference. A 10.8 nM (1.8×) MAGL mix in assay buffer was prepared, with 25 μL added to each reaction well, for a final assay concentration of 6 nM. No enzyme wells received 25 μL of buffer. Plate was incubated at room temperature for 30 minutes. 35 mM solution of 4NPA in methanol was prepared daily. A 4.5×4NPA substrate solution was prepared in assay buffer and 10 μL was added to each reaction well, for a final assay concentration of 0.25 mM. Plate was spun for 1 minute at 1000 rpm before measuring absorbance using a CLARIOstar plate reader (BMG Labtech). A kinetic reading at 405 nm was done every minute for 30 minutes. Data was analyzed using the linear slope of the reaction progress curve and the average of the no-enzyme wells (background) was subtracted from the data. The background-subtracted slope data was converted to % activity using the average of wells with enzyme and DMSO vehicle. IC50s were calculated using GraphPad software (Sigmoidal dose response, variable slope equation). […] Table 8 provides potency measurements of MAGL inhibition measured using the Potency Assay of Example 22 above, with the following modifications described in Table C. [table]
# Sequence of Monoacylglycerol Lipase (MAGL) (Q99685 2-303): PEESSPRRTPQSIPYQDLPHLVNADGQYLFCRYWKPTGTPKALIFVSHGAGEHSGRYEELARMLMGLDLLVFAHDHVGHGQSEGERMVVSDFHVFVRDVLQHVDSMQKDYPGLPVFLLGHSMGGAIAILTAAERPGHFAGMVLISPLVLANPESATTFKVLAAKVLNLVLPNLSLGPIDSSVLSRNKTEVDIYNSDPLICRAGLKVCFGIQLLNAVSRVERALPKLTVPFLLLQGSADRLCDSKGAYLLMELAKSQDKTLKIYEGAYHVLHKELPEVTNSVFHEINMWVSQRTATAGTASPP
row,IC50,Compound
1,50 to 150 nM,"Cc1cnn(C2CC3(C2)CN(C(=O)c2cc(O)ccc2F)C3)c1-c1ccccc1F [Compound 408, (2-fluoro-5-hydroxyphenyl){6-[5-(o-fluorophenyl)-4-methyl-1-pyrazolyl]-2-aza-2-spiro[3.3]heptyl}methanone]"
2,150 to 500 nM,"O=C(c1cc(O)ccc1F)N1CC2(CC(n3ncc(C4CC4)c3-c3ccccc3Cl)C2)C1 [Compound 411, {6-[5-(o-chlorophenyl)-4-cyclopropyl-1-pyrazolyl]-2-aza-2-spiro[3.3]heptyl}(2-fluoro-5-hydroxyphenyl)methanone]"
3,1000 to 5100 nM,"Cc1ccccc1-c1c(C)cnn1C1CC2(C1)CN(C(=O)c1ccc(F)cc1OC1CC1)C2 [Compound 419, (2-cyclopropoxy-4-fluorophenyl){6-[4-methyl-5-(o-tolyl)-1-pyrazolyl]-2-aza-2-spiro[3.3]heptyl}methanone]"
4,1000 to 5100 nM,"Cc1cnn(C2CC3(C2)CN(C(=O)c2ccc(F)cc2OC2CC2)C3)c1-c1ccccc1C(F)(F)F [Compound 420, (2-cyclopropoxy-4-fluorophenyl)(6-{4-methyl-5-[o-(trifluoromethyl)phenyl]-1-pyrazolyl}-2-aza-2-spiro[3.3]heptyl)methanone]"
5,1000 to 5100 nM,"Cc1ccc(F)cc1-c1c(C)cnn1C1CC2(C1)CN(C(=O)c1ccc(F)cc1OC1CC1)C2 [Compound 422, (2-cyclopropoxy-4-fluorophenyl){6-[5-(5-fluoro-2-tolyl)-4-methyl-1-pyrazolyl]-2-aza-2-spiro[3.3]beptyl}methanone]"
6,1000 to 5100 nM,"COc1cc(F)ccc1C(=O)N1CC2(CC(n3nc(-c4cc(F)ccc4C)cc3C)C2)C1 [Compound 439, (4-fluoro-2-methoxyphenyl){6-[3-(5-fluoro-2-tolyl)-5-methyl-1-pyrazolyl]-2-aza-2-spiro[3.3]heptyl}methanone]"
7,1000 to 5100 nM,Cc1cc(F)c(C(=O)N2CC3(CC(n4cc(C)c(-c5ccccc5C)n4)C3)C2)cc1O [Compound 443]

# Further lines, the compound ahead of its results:
row,Compound,IC50
1,Cc1cc(F)c(C(=O)N2CC3(CC(n4ncc(C)c4-c4ccccc4C)C3)C2)cc1O [Compound 407],50 to 150 nM
2,"Cc1cc(-c2cc(F)ccc2C)n(C2CC3(C2)CN(C(=O)c2cc(O)ccc2F)C3)n1 [Compound 415, (2-fluoro-5-hydroxyphenyl){6-[5-(5-fluoro-2-tolyl)-3-methyl-1-pyrazolyl]-2-aza-2-spiro[3.3]heptyl}methanone]",50 to 150 nM
3,"Cc1cn(C2CC3(C2)CN(C(=O)c2cc(O)ccc2F)C3)nc1-c1ccccc1F [Compound 417, (2-fluoro-5-hydroxyphenyl){6-[3-(o-fluorophenyl)-4-methyl-1-pyrazolyl]-2-aza-2-spiro[3.3]heptyl}methanone]",< 50 nM
4,"Cc1cc(-c2cc(F)ccc2C)n(C2CC3(C2)CN(C(=O)c2ccc(F)cc2OC2CC2)C3)n1 [Compound 423, (2-cyclopropoxy-4-fluorophenyl){6-[5-(5-fluoro-2-tolyl)-3-methyl-1-pyrazolyl]-2-aza-2-spiro[3.3]heptyl}methanone]",1000 to 5100 nM
5,"Cc1cn(C2CC3(C2)CN(C(=O)c2ccc(F)cc2OC2CC2)C3)nc1-c1ccccc1F [Compound 425, (2-cyclopropoxy-4-fluorophenyl){6-[3-(o-fluorophenyl)-4-methyl-1-pyrazolyl]-2-aza-2-spiro[3.3]heptyl}methanone]",150 to 500 nM
6,Cc1cc(-c2cc(F)ccc2C)n(C2CC3(C2)CN(C(=O)c2ccc(F)cc2OC(F)F)C3)n1 [Compound 428],150 to 500 nM
7,"Cc1cn(C2CC3(C2)CN(C(=O)c2cc(O)ccc2F)C3)nc1-c1ccccc1C(F)(F)F [Compound 444, (2-fluoro-5-hydroxyphenyl)(6-{4-methyl-3-[o-(trifluoromethyl)phenyl]-1-pyrazolyl}-2-aza-2-spiro[3.3]heptyl)methanone]",< 50 nM

# Same assay, conditions: Method 6: Reaction Biology MAGL enzyme, 6 nM; read-out: Potency (MAGL inhibition)
row,IC50,Compound
1,> 10000 nM,Cc1cc(-c2ccccc2C)n(C2CC3(C2)CN(C(=O)c2cc(O)ccc2F)C3)n1 [Compound 406]
2,> 10000 nM,Cc1ccccc1-c1ccn(C2CC3(C2)CN(C(=O)c2cc(O)ccc2F)C3)n1 [Compound 441]
3,> 10000 nM,Cc1ccccc1-c1cc(C)n(C2CC3(C2)CN(C(=O)c2cc(O)ccc2F)C3)n1 [Compound 442]

# The remaining lines, values behind:
row,Compound,IC50
1,Cc1cnn(C2CC3(C2)CN(C(=O)c2cc(O)ccc2F)C3)c1-c1ccccc1Cl [Compound 404],> 10000 nM
2,Cc1ccccc1-c1ccnn1C1CC2(C1)CN(C(=O)c1cc(O)ccc1F)C2 [Compound 405],> 10000 nM
3,Cc1cn(C2CC3(C2)CN(C(=O)c2cc(O)ccc2F)C3)nc1-c1ccccc1Cl [Compound 416],> 10000 nM
4,"O=C(c1ccc(F)cc1OC1CC1)N1CC2(CC(n3nc(C(F)(F)F)cc3-c3ccccc3C(F)(F)F)C2)C1 [Compound 424, (2-cyclopropoxy-4-fluorophenyl)(6-(3-(trifluoromethyl)-5-(2-(trifluoromethyl)phenyl)-1H-pyrazol-1-yl)-2-azaspiro[3.3]heptan-2-yl)methanone]",> 10000 nM

# Same assay, conditions: Method 11: Reaction Biology MAGL enzyme, 25 nM (name: Conc 20); read-out: MAGL Potency (Detection Method)
row,IC50,Compound
1,1000 to 5100 nM,"Cc1ccc(F)cc1-c1cc(C)n(C2CC3(C2)CN(C(=O)c2ccc(F)cc2OCF)C3)n1 [Compound 437, (4-fluoro-2-fluoromethoxyphenyl){6-[3-(5-fluoro-2-tolyl)-5-methyl-1-pyrazolyl]-2-aza-2-spiro[3.3]heptyl}methanone]"

# Same assay, conditions: Method 11: Reaction Biology MAGL enzyme, 25 nM (name: Conc 20); read-out: Potency (MAGL inhibition)
row,IC50,Compound
1,> 10000 nM,Cc1cc(-c2cc(F)ccc2C)n(C2CC3(C2)CN(C(=O)c2ccc(F)cc2OC(F)(F)F)C3)n1 [Compound 427]

# Same assay, conditions: Method 14: Reaction Biology MAGL enzyme, 6 nM; read-out: MAGL Potency (Detection Method)
row,IC50,Compound
1,150 to 500 nM,"Cc1cc(C2CC3(C2)CN(C(=O)c2ccc(F)cc2OC2CC2)C3)n(-c2ccccc2C)n1 [Compound 374, (2-cyclopropoxy-4-fluorophenyl) {6-[3-methyl-1-(o-tolyl)-5-pyrazolyl]-2-aza-2-spiro[3.3]heptyl}methanone]"
2,500 to 1000 nM,"Cc1ccccc1-c1nnc(C2CC3(C2)CN(C(=O)c2cc(O)ccc2F)C3)o1 [Compound 378, (2-fluoro-5-hydroxyphenyl){6-[5-(o-tolyl)-1,3,4-oxadiazol-2-yl]-2-aza-2-spiro[3.3]heptyl}methanone]"

# The next lines start with the compound.
row,Compound,IC50
1,"O=C(c1cc(O)ccc1F)N1CC2(CC(n3ncnc3-c3ccccc3Cl)C2)C1 [Compound 376, {6-[5-(o-chlorophenyl)-1H-1,2,4-triazol-1-yl]-2-aza-2-spiro[3.3]beptyl}(2-fluoro-5-hydroxyphenyl)methanone]",50 to 150 nM
2,"O=C(c1cc(O)ccc1F)N1CC2(CC(c3nnc(-c4ccccc4Cl)o3)C2)C1 [Compound 377, {6-[5-(o-chlorophenyl)-1,3,4-oxadiazol-2-yl]-2-aza-2-spiro[3.3]heptyl}(2-fluoro-5-hydroxyphenyl)methanone]",500 to 1000 nM
3,"Cc1cc(F)ccc1-n1c(C)cnc1C1CC2(C1)CN(C(=O)c1cc(O)ccc1F)C2 [Compound 380, (2-fluoro-5-hydroxyphenyl){6-[1-(4-fluoro-2-tolyl)-5-methyl-2-imidazolyl]-2-aza-2-spiro[3.3]heptyl}methanone]",1000 to 5100 nM
4,"Cc1ccccc1-c1ccn(C(=O)C2CC3(C2)CN(C(=O)c2cc(O)ccc2F)C3)n1 [Compound 381, {2-(2-fluoro-5-hydroxybenzoyl)-2-aza-6-spiro[3,3]heptyl}[3-(o-tolyl)-1-pyrazolyl]methanone]",150 to 500 nM
5,"O=C(c1cc(O)ccc1F)N1CC2(CC(c3nccn3-c3ccccc3)C2)C1 [Compound 401, (2-fluoro-5-hydroxyphenyl){6-(1-phenyl-2-imidazolyl)-2-aza-2-spiro[3.3]heptyl}methanone]",500 to 1000 nM
6,"Cc1ccccc1-c1nn(C2CC3(C2)CN(C(=O)c2cc(O)ccc2F)C3)cc1C [Compound 440, (2-fluoro-5-hydroxyphenyl){6-[4-methyl-3-(o-tolyl)-1-pyrazolyl]-2-aza-2-spiro[3.3]heptyl}methanone]",< 50 nM

# Same assay, conditions: Method 14: Reaction Biology MAGL enzyme, 6 nM; read-out: Potency (MAGL inhibition)
row,IC50,Compound
1,> 10000 nM,O=C(c1cc(O)ccc1F)N1CC2(CC(C(=O)N3CCOCC3)C2)C1 [Compound 384]
2,> 10000 nM,O=C(c1cc(O)ccc1F)N1CC2(CC(C(=O)N3CCCC3)C2)C1 [Compound 388]
3,> 10000 nM,O=C(c1cc(O)ccc1F)N1CC2(CC(C(=O)N3CCC4(COC4)C3)C2)C1 [Compound 391]
4,> 10000 nM,O=C(NCC1COC1)C1CC2(C1)CN(C(=O)c1cc(O)ccc1F)C2 [Compound 395]
5,> 10000 nM,O=C(c1cc(O)ccc1F)N1CC2(CC(C(=O)N3CCC4(CCCO4)C3)C2)C1 (centres unmarked) [Compound 400]
6,> 10000 nM,Cc1cc(C2CC3(C2)CN(C(=O)c2ccc4c(c2)OCC4)C3)n(-c2ccccc2C)n1 [Compound 402]
7,> 10000 nM,Cc1cc(C2CC3(C2)CN(C(=O)c2cccc4c2CCO4)C3)n(-c2ccccc2C)n1 [Compound 403]
